Assays:
Assay in all cases: selective drug sensitivity score (sDSS, relative to normal bone marrow) (sDSS (score)); higher = more potent and effective on the cell line relative to normal bone marrow cells
Details in all cases: 72 h
HPB-ALL = tested on: HPB-ALL
RCH-ACV = tested on: RCH-ACV
KARPAS-45 = tested on: KARPAS-45
COG-LL-319h = tested on: COG-LL-319h
MHH-CALL-3 = tested on: MHH-CALL-3
SEM cells = tested on: SEM cells
COG-LL-317 = tested on: COG-LL-317
PF-382 = tested on: PF-382
KASUMI-10 = tested on: KASUMI-10
MHH-CALL-2 = tested on: MHH-CALL-2
CCRF-CEM = tested on: CCRF-CEM
NALM-6 = tested on: NALM-6
RPMI-8402 = tested on: RPMI-8402
MHH-CALL-4 = tested on: MHH-CALL-4
PEER = tested on: PEER
ALL-SIL = tested on: ALL-SIL
KASUMI-2 = tested on: KASUMI-2
TMD5 = tested on: TMD5
MOLT-16 = tested on: MOLT-16
MOLT-4 = tested on: MOLT-4
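Also: ALL cell lines in 384-well plates, five doses spanning 10,000-fold, each plate scaled between vehicle and 100 µmol/L benzalkonium chloride controls, sDSS an adapted area-under-curve metric.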

SMILES | selective drug sensitivity score (HPB-ALL) | selective drug sensitivity score (RCH-ACV) | selective drug sensitivity score (KARPAS-45) | selective drug sensitivity score (COG-LL-319h) | selective drug sensitivity score (MHH-CALL-3) | selective drug sensitivity score (SEM cells) | selective drug sensitivity score (COG-LL-317) | selective drug sensitivity score (PF-382) | selective drug sensitivity score (KASUMI-10) | selective drug sensitivity score (MHH-CALL-2) | selective drug sensitivity score (CCRF-CEM) | selective drug sensitivity score (NALM-6) | selective drug sensitivity score (RPMI-8402) | selective drug sensitivity score (MHH-CALL-4) | selective drug sensitivity score (PEER) | selective drug sensitivity score (ALL-SIL) | selective drug sensitivity score (KASUMI-2) | selective drug sensitivity score (TMD5) | selective drug sensitivity score (MOLT-16) | selective drug sensitivity score (MOLT-4)
CC(C)Oc1ccc(C(=O)N[C@H](CNC(=O)CN(C)C)Cc2ccc(-c3cn4cccc([C@H](C)O)c4n3)cc2)cc1Cl (top concentration 10000 nM) | 8.18 | 18 | 7.48 | 14.3 | -9.32 | 8.88 | 16.6 | 6.68 | 6.88 | 8.58 | 16.2 | 7.68 | 9.28 | 0.78 | 19.9 | 12.8 | 6.38 | 5.18 | 20.1 | 18.2
CCn1c(-c2nonc2N)nc2cnc(Oc3cccc(NC(=O)c4ccc(OCCN5CCOCC5)cc4)c3)cc21 (top concentration 10000 nM) | -1.14 | 17.1 | 15.2 | 17.5 | -2.34 | 9.36 | 7.46 | 1.66 | -2.74 | 8.36 | 15.8 | 6.76 | 7.66 | 10.4 | 16.6 | 4.06 | 14.3 | 6.36 | 12.1 | 1.86
CC(C)(C#N)c1cc(Cn2cncn2)cc(C(C)(C)C#N)c1 [Anastrozole] (top concentration 10000 nM) | 0.2 | 0 | 0 | 0 | 0 | 0 | 0 | 0 | 0 | 0 | 0 | 0 | 0 | 0 | 0 | 0 | 0 | 0.6 | 0 | 0
Cc1sc2c(c1C)C(c1ccc(Cl)cc1)=N[C@@H](CC(=O)Nc1ccc(O)cc1)c1nnc(C)n1-2 [Birabresib] (top concentration 10000 nM) | -0.08 | 12 | 9.42 | 13.5 | 14 | 11.6 | 9.12 | 3.42 | 7.02 | 7.02 | 1.22 | 3.72 | 3.72 | 6.02 | -0.08 | 0.02 | -9.68 | -9.18 | 7.92 | -4.68
Nc1ccn([C@@H]2O[C@H](CO)[C@@H](O)[C@@H]2O)c(=O)n1 [Cytarabine] (top concentration 10000 nM) | 2.7 | 28.1 | -7.7 | 18.8 | 15.8 | 15.9 | 27.2 | 19.1 | 1.6 | 19.6 | 25.7 | 25.2 | 18.6 | 5.4 | 12.2 | 15.1 | 16.6 | -10 | 22.5 | 19
COc1cccc2c1C(=O)c1c(O)c3c(c(O)c1C2=O)C[C@@](O)(C(C)=O)C[C@@H]3O[C@H]1C[C@H](N)[C@H](O)[C@H](C)O1 [Daunorubicin] (top concentration 1000 nM) | -1.64 | 12.6 | -0.34 | 16.4 | 16.4 | 6.06 | 14.8 | 1.26 | 9.06 | 6.16 | 9.16 | 6.36 | 8.96 | 7.46 | -3.84 | 1.26 | 10.8 | 1.86 | 13.5 | 7.86
Nc1ncn([C@H]2C[C@H](O)[C@@H](CO)O2)c(=O)n1 [Decitabine] (top concentration 10000 nM) | -0.66 | 10.1 | -6.06 | 10.7 | 2.34 | 1.74 | 14.9 | -1.16 | -3.06 | 1.04 | 4.44 | -3.06 | 1.24 | 0.54 | 2.94 | -3.06 | -2.26 | -5.56 | 5.94 | -0.96
CCN(CC)C(=S)SSC(=S)N(CC)CC [Disulfiram(+CuCl2)] (top concentration 50000 nM) | 15.8 | 5.38 | -2.12 | 18.7 | 1.78 | -2.12 | -2.12 | -0.02 | -1.52 | 8.58 | -2.12 | -2.12 | -2.12 | 3.38 | -2.12 | -2.12 | 5.18 | -2.12 | 13.9 | -2.12
Nc1nc(F)nc2c1ncn2[C@@H]1O[C@H](CO)[C@@H](O)[C@@H]1O [Fludarabine] (top concentration 10000 nM) | 0.3 | 5.9 | -10.3 | 8.4 | 7.5 | 4 | 3.3 | -6.6 | -0.8 | 8 | 2.3 | 4.6 | -3.6 | 8.3 | -9.3 | 3 | 5.3 | -10.6 | 2.6 | -1.9
Nc1nc(OCc2cc(Br)cs2)c2[nH]cnc2n1 [Lomeguatrib] (top concentration 10000 nM) | 0.1 | 0.8 | 0 | 0 | 0 | 0 | 0 | 0 | 0 | 0 | 0 | 0 | 0 | 0 | 0 | 0 | 0 | 0 | 0 | 0
